From patent US9018260B2, “Indanesulfamide derivatives” (Eisai R&D Management Co., Ltd., priority 2012, dated 2015)

Legend:
[1] = test system: corneal kindled male C57Bl/6 mice; assay: Mouse corneal kindling model; type: in vivo; conditions: for Seizure severity score (Average): Racine's scale; for ED50: Mus musculus, po, dosage where 50% of animals showed seizure severity score 2 or less
Excerpt: Male C57Bl/6 mice were stimulated twice daily for 10 days. The electric-stimulations with current intensities of 4.0 mA and duration of 3 s (pulse frequency 50 Hz) were applied via corneally placed saline-soaked copper electrodes.
Seizure severity was ranked according to a modified scoring system of the Racine's scale (Clin. Neurophysiol. 1972:32:281-294): Score 1, mild facial clonus and eye blinking; 2, severe facial clonus, head nodding, chewing; 3, unilateral or alternating forelimb clonus; 4, bilateral forelimb clonus with rearing; 5, bilateral forelimb clonus with rearing and falling; 6, tonic fore- and/or hindlimb extension. The fully kindled animals with the severity score 4 or more were used for evaluation.
Test compounds were dissolved in the vehicle (0.45% methyl cellulose/4.5% cremophor/10% DMSO), then orally (p.o.) or intraperitoneally (i.p.) administered to mice. The vehicle was orally administered as controls.
Electric stimulation was applied at 1 hour after p.o. or 20 minutes after i.p administration. Stimulation parameters were the same as during the kindling process. After electric stimulation, seizure severity was recorded for 30 seconds according to the Racine's scale.
Four to ten animals were used for calculation of average seizure severity score at each dose.

[2] = test system: male ddY mice; assay: Rota rod test; type: in vivo, mouse; conditions: route p.o.; TD50 in rota rod test divided by ED50 in corneal kindling model
Protocol: (§1) Rotarod apparatus (Rota-rod MK-660C, Muromachi-Kikai Co., Ltd.) was used for measurement. The motor was turned on and the rod rotation was continuously accelerated to a rate of 40 rpm over 180 sec.
(§2) Male ddY mice at an age of 5 weeks (Japan SLC) were used. On the experiment day, the mice were pretrained and only the animals able to remain on the rod for at least 60 s were selected for experiment.
(§3) Test compounds were dissolved in the vehicle (0.45% methyl cellulose/4.5% cremophor/10% dimethyl sulfoxide), then orally (p.o.) administered to mice. The vehicle was orally administered as controls. The effects of compounds were studied in groups of six to ten animals.
(§4) Latency for mice to fall off from the rod was measured. The toxic dose at which fall off latency shorten by 50% of vehicle control value (TD50) was calculated.
(§5) Therapeutic index were calculated by dividing the respective TD50 value in rota rod test by the ED50 value determined in the corneal kindling model.

[3] = Rota rod test; type: in vivo, mouse; conditions: male, ddY, mouse, in vivo, po; dose at which fall off latency shorten by 50% of vehicle control value
Protocol: as §1, §2, §3, §4, §5

[4] = dose 10 mg/kg, p.o., stimulation 1 hour after administration
[5] = dose 25 mg/kg, p.o., stimulation 1 hour after administration
[6] = dose 25 mg/kg, p.o., stimulation 1 hour after administration, 25 mg/kg
[7] = dose 50 mg/kg, p.o., stimulation 1 hour after administration
[8] = dose 10 mg/kg, p.o., stimulation 1 hour after administration, 10 mg/kg
[9] = dose 10 mg/kg, i.p., stimulation 20 minutes after administration
[10] = dose 25 mg/kg, i.p., stimulation 20 minutes after administration

Cc1cc(F)cc2c1C(NS(N)(=O)=O)CC2 (racemic) [Example 26, (±)-N-(5-fluoro-7-methyl-2,3-dihydro-1H-inden-1-yl)sulfamide]
Seizure severity score (Average) [1, 4]: 4.25
Seizure severity score (Average) [1, 5]: 0

Cc1cc(Cl)cc2c1C(NS(N)(=O)=O)CC2 (racemic) [Example 30, (±)-N-(5-chloro-7-methyl-2,3-dihydro-1H-inden-1-yl)sulfamide]
Seizure severity score (Average) [1, 4]: 4.25
Seizure severity score (Average) [1, 5]: 0.25

NS(=O)(=O)N[C@@H]1c2c(F)ccc(F)c2C[C@H]1F (relative stereo) [Example 15, N-[(1R*,2R*)-2,4,7-trifluoro-2,3-dihydro-1H-inden-1-yl]sulfamide]
Seizure severity score (Average) [1, 4]: 3
Seizure severity score (Average) [1, 5]: 0

NS(=O)(=O)N[C@@H]1c2c(Cl)ccc(F)c2C[C@H]1F (relative stereo) [Example 16a, (−)-N-[(1R*,2R*)-7-chloro-2,4-difluoro-2,3-dihydro-1H-inden-1-yl]sulfamide]
Seizure severity score (Average) [1, 6]: 0

NS(=O)(=O)N[C@@H]1c2c(Cl)ccc(F)c2C[C@H]1F (relative stereo) [Example 16b, (+)-N-[(1R*,2R*)-7-chloro-2,4-difluoro-2,3-dihydro-1H-inden-1-yl]sulfamide]
Seizure severity score (Average) [1, 4]: 3.75
Seizure severity score (Average) [1, 6]: 0.5

NS(=O)(=O)N[C@@H]1c2c(Cl)cc(F)cc2C[C@H]1F (relative stereo) [Example 17, (−)-N-[(1R*,2R*)-7-chloro-2,5-difluoro-2,3-dihydro-1H-inden-1-yl]sulfamide]
Seizure severity score (Average) [1, 4]: 2
Seizure severity score (Average) [1, 5]: 0
Seizure severity score (Average) [1, 7]: 0

CO[C@@H]1Cc2c(Cl)ccc(F)c2[C@H]1NS(N)(=O)=O (relative stereo) [Example 18, (+)-N-[(1R*,2R*)-4-chloro-7-fluoro-2-methoxy-2,3-dihydro-1H-inden-1-yl]sulfamide]
Seizure severity score (Average) [1, 4]: 2
Seizure severity score (Average) [1, 5]: 0

Cc1cc(C#N)cc2c1C(NS(N)(=O)=O)C(F)(F)C2 (single isomer, unassigned) [Example 4, N-[(1S*)-5-cyano-2,2-difluoro-7-methyl-2,3-dihydro-1H-inden-1-yl]sulfamide]
Seizure severity score (Average) [1, 5]: 0
Seizure severity score (Average) [1, 7]: 0

Cc1ccc(F)c2c1C(NS(N)(=O)=O)C(F)(F)C2 (single isomer, unassigned) [Example 13, N-[(1S*)-2,2,4-trifluoro-7-methyl-2,3-dihydro-1H-inden-1-yl]sulfamide]
Seizure severity score (Average) [1, 4]: 0

NS(=O)(=O)NC1c2c(cccc2C(F)F)CC1(F)F (single isomer, unassigned) [Example 14, N-[(1S*)-7-(difluoromethyl)-2,2-difluoro-2,3-dihydro-1H-inden-1-yl]sulfamide]
Seizure severity score (Average) [1, 5]: 0

N#Cc1cc(Cl)c2c(c1)CC[C@H]2NS(N)(=O)=O (single isomer, unassigned) [Example 22b, (−)-N-(7-chloro-5-cyano-2,3-dihydro-1H-inden-1-yl)sulfamide]
Seizure severity score (Average) [1, 4]: 3
Seizure severity score (Average) [1, 6]: 0

NS(=O)(=O)N[C@H]1CCc2cccc(Cl)c21 (single isomer, unassigned) [Example 24, (+)-N-(7-chloro-2,3-dihydro-1H-inden-1-yl)sulfamide]
Seizure severity score (Average) [1, 4]: 3
Seizure severity score (Average) [1, 5]: 0

Cc1cc(C#N)cc2c1C(NS(N)(=O)=O)CC2 (single isomer, unassigned) [Example 25a, (+)-N-(5-cyano-7-methyl-2,3-dihydro-1H-inden-1-yl)sulfamide]
Seizure severity score (Average) [1, 8]: 1.75
Seizure severity score (Average) [1, 5]: 0

Cc1ccc(F)c2c1[C@@H](NS(N)(=O)=O)CC2 (single isomer, unassigned) [Example 28a, (+)-N-(4-fluoro-7-methyl-2,3-dihydro-1H-inden-1-yl)sulfamide]
Seizure severity score (Average) [1, 8]: 4
Seizure severity score (Average) [1, 5]: 0

NS(=O)(=O)NC1c2c(F)c(F)cc(F)c2CC1(F)F (single isomer, unassigned; (+)) [Example 3, (+)-N-(2,2,4,6,7-pentafluoro-2,3-dihydro-1H-inden-1-yl)sulfamide]
Seizure severity score (Average) [1, 4]: 1.5
Seizure severity score (Average) [1, 5]: 0

NS(=O)(=O)NC1c2c(F)cc(Cl)cc2CC1(F)F (single isomer, unassigned; (+)) [Example 10, (+)-N-(5-chloro-2,2,7-trifluoro-2,3-dihydro-1H-inden-1-yl)sulfamide]
Seizure severity score (Average) [1, 4]: 0
Seizure severity score (Average) [1, 5]: 0

NS(=O)(=O)NC1CCc2c(F)ccc(Cl)c21 (single isomer, unassigned; (+)) [Example 20, (+)-N-(7-chloro-4-fluoro-2,3-dihydro-1H-inden-1-yl)sulfamide]
Seizure severity score (Average) [1, 9]: 3.25
Seizure severity score (Average) [1, 10]: 0

Cc1cccc2c1C(NS(N)(=O)=O)CC2 (single isomer, unassigned; (+)) [Example 27, (+)-N-(7-methyl-2,3-dihydro-1H-inden-1-yl)sulfamide]
Seizure severity score (Average) [1, 4]: 3
Seizure severity score (Average) [1, 5]: 0

NS(=O)(=O)NC1c2c(ccc(F)c2F)CC1(F)F (single isomer, unassigned; (-)) [Example 5, (−)-N-(2,2,6,7-tetrafluoro-2,3-dihydro-1H-inden-1-yl)sulfamide]
Therapeutic index [2]: 70.9
TD50 [3]: 404 mg/kg
ED50 [1]: 5.7 mg/kg
Seizure severity score (Average) [1, 4]: 2
Seizure severity score (Average) [1, 5]: 0

NS(=O)(=O)NC1c2c(Cl)ccc(F)c2CC1(F)F (single isomer, unassigned; (-)) [Example 7, (−)-N-(7-chloro-2,2,4-trifluoro-2,3-dihydro-1H-inden-1-yl)sulfamide]
Seizure severity score (Average) [1, 9]: 3.5
Seizure severity score (Average) [1, 10]: 0.25

NS(=O)(=O)NC1c2c(ccc(F)c2Cl)CC1(F)F (single isomer, unassigned; (-)) [Example 9, (−)-N-(7-chloro-2,2,6-trifluoro-2,3-dihydro-1H-inden-1-yl)sulfamide]
Seizure severity score (Average) [1, 5]: 0
Seizure severity score (Average) [1, 7]: 0

NS(=O)(=O)NC1CCc2cc(Cl)cc(F)c21 (single isomer, unassigned; (-)) [Example 23, (−)-N-(5-chloro-7-fluoro-2,3-dihydro-1H-inden-1-yl)sulfamide]
Seizure severity score (Average) [1, 4]: 4.25
Seizure severity score (Average) [1, 5]: 0

NS(=O)(=O)NC1CCc2c(F)cc(F)c(F)c21 (single isomer, unassigned; (-)) [Example 29, (−)-N-(4,6,7-trifluoro-2,3-dihydro-1H-inden-1-yl)sulfamide]
Therapeutic index [2]: 9.93
TD50 [3]: 157 mg/kg
ED50 [1]: 15.8 mg/kg
Seizure severity score (Average) [1, 4]: 3.5
Seizure severity score (Average) [1, 5]: 0.83
Seizure severity score (Average) [1, 7]: 0

NS(=O)(=O)NC1CCc2c(Cl)ccc(F)c21 (single isomer, unassigned; (-)) [Example 31, (−)-N-(4-chloro-7-fluoro-2,3-dihydro-1H-inden-1-yl)sulfamide]
Seizure severity score (Average) [1, 4]: 1.5
Seizure severity score (Average) [1, 5]: 0

NS(=O)(=O)N[C@H]1c2c(F)cc(F)cc2CC1(F)F [Example 1, N-[(1S)-2,2,5,7-tetrafluoro-2,3-dihydro-1H-inden-1-yl]sulfamide]
Therapeutic index [2]: 49.4
TD50 [3]: 390 mg/kg
ED50 [1]: 7.9 mg/kg
Seizure severity score (Average) [1, 4]: 2
Seizure severity score (Average) [1, 5]: 0
Seizure severity score (Average) [1, 7]: 0

N#Cc1cc(Cl)c2c(c1)CC[C@H]2NS(N)(=O)=O [Example 22a, (+)-N-(7-chloro-5-cyano-2,3-dihydro-1H-inden-1-yl)sulfamide]
Seizure severity score (Average) [1, 4]: 3
Seizure severity score (Average) [1, 6]: 0.25

Cc1cc(C#N)cc2c1[C@@H](NS(N)(=O)=O)CC2 [Example 25b, (−)-N-(5-cyano-7-methyl-2,3-dihydro-1H-inden-1-yl)sulfamide]
Seizure severity score (Average) [1, 8]: 1
Seizure severity score (Average) [1, 5]: 0

Cc1ccc(F)c2c1[C@@H](NS(N)(=O)=O)CC2 [Example 28b, (−)-N-(4-fluoro-7-methyl-2,3-dihydro-1H-inden-1-yl)sulfamide]
Seizure severity score (Average) [1, 8]: 3.75
Seizure severity score (Average) [1, 5]: 0
